Measurements published in publication PMC5973995 (Clinical Pharmacokinetics, 2017).
Like-named read-outs stand apart in the source and are kept apart here.

Columns and labels:
CYP1A2 = molecular target: T1, CYP1A2 (Homo sapiens, UniProt P05177); assay: In-vitro CYP inhibition in pooled human liver microsomes; type: in vitro ADME; conditions: data on file
T1 sequence (P05177 1-516): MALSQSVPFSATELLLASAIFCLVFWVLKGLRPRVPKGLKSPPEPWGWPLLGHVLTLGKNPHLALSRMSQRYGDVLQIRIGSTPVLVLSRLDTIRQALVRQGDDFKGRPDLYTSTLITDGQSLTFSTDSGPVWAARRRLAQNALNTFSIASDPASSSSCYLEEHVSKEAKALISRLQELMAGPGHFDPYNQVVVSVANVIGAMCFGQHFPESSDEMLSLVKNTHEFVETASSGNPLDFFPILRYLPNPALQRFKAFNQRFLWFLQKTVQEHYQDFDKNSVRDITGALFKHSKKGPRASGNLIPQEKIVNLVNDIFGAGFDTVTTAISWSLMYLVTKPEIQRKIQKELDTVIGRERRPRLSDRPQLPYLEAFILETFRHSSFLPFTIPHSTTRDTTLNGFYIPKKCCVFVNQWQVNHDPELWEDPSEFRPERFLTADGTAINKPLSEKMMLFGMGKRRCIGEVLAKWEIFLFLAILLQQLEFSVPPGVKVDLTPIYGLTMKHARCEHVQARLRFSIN

CYP2A6 = molecular target: T2, CYP2A6 (Homo sapiens, UniProt P11509); assay: as above; type: in vitro ADME; conditions: data on file
T2 sequence (P11509 1-494): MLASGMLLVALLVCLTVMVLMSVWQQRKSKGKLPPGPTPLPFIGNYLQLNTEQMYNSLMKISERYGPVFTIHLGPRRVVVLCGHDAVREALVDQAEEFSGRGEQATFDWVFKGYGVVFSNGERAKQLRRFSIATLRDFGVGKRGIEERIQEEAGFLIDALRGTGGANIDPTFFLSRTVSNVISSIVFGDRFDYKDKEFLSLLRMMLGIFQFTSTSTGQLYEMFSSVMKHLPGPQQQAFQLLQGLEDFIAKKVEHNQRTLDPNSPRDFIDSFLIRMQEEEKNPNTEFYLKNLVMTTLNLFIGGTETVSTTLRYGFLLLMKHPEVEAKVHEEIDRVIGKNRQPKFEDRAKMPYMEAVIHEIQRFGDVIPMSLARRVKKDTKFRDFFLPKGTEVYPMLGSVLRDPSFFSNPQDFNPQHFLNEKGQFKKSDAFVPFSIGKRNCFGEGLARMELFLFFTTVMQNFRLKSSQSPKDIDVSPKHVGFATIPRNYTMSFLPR

CYP2E1 = CYP2E1 (Homo sapiens, UniProt P05181); assay: as above; type: in vitro ADME; conditions: data on file
CYP3A4/5 = assay: as above; type: in vitro ADME; conditions: data on file
CYP2D6 = CYP2D6 (Homo sapiens, UniProt P10635); assay: as above; type: in vitro ADME; conditions: data on file
CYP2C8 = molecular target: T3, CYP2C8 (Homo sapiens, UniProt P10632); assay: as above; type: in vitro ADME
T3 sequence (P10632 1-490): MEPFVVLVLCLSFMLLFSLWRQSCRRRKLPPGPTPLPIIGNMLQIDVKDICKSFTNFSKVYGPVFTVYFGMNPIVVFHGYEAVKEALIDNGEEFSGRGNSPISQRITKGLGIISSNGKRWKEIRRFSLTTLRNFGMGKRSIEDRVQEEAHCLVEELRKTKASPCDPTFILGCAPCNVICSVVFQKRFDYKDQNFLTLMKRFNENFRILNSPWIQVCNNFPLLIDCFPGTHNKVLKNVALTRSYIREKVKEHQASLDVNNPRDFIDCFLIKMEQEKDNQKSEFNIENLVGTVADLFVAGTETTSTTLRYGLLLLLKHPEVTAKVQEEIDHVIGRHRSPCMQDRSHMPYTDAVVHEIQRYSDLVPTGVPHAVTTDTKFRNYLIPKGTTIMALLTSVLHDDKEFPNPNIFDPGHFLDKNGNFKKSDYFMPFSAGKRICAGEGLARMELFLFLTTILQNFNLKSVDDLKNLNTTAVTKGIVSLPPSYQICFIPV

[1] = Tolerability / adverse events in phase I studies; type: in vivo, human; conditions: phase I data grouped by CYP2D6-predicted phenotypes
[2] = once-daily dosing; cited from earlier work
[3] = cited from earlier work
[4] = cited from earlier work; remark: listed apart in the source
[5] = test system: P-glycoprotein (Pgp) transporter; conditions: cited from earlier work
SERT = conditions: Japanese and white male individuals, cited from earlier work
[6] = cited from earlier work; remark: listed apart in the source
5-HT1A receptor = conditions: in vitro; cited from earlier work
5-HT3 receptor = conditions: in vitro; cited from earlier work
5-HT7 receptor = conditions: in vitro; cited from earlier work
5-HT1D receptor = conditions: in vitro; cited from earlier work
[7] = within 360 h, single 50-mg 14C dose
[8] = mild-to-moderate hepatic impairment, single dose 10 mg (Fig. 2)
[9] = severe hepatic impairment, single dose 5 mg

CYP2E1, sequence (P05181 whole entry): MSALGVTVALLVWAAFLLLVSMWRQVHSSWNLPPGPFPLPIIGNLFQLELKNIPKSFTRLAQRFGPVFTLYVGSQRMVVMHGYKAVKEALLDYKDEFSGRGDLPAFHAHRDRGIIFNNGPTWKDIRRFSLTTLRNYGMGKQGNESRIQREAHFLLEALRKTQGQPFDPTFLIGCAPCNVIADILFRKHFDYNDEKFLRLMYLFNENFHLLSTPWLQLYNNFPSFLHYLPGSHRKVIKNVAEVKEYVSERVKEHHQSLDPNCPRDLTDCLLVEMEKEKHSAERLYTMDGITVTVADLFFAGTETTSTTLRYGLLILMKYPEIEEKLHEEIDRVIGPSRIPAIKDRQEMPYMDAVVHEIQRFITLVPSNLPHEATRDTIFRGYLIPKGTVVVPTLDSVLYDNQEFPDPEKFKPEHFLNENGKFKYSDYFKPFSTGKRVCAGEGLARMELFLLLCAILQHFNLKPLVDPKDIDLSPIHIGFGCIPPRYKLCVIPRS
CYP2D6, sequence (P10635 whole entry): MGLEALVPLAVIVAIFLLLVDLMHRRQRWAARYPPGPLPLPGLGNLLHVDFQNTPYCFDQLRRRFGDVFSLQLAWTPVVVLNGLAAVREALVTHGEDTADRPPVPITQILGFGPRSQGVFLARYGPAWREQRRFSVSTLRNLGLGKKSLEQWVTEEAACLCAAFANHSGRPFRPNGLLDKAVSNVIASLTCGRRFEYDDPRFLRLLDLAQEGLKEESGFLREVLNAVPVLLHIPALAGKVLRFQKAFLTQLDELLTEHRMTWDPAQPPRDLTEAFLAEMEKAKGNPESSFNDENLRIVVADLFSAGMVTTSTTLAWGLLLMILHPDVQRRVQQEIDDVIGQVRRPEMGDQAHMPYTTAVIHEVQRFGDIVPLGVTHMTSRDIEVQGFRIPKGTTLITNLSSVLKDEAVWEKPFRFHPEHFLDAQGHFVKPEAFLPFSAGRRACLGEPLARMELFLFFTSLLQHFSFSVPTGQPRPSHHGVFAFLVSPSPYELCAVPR

Br.Cc1ccc(Sc2ccccc2N2CCNCC2)c(C)c1 [vortioxetine, 1-[2-(2,4-dimethyl-phenylsulfanyl)-phenyl]-piperazine, hydrobromide]
inhibitory in-vitro effect on CYP1A2 (CYP1A2): no inhibitory in-vitro effect
inhibitory in-vitro effect on CYP2A6 (CYP2A6): no inhibitory in-vitro effect
inhibitory in-vitro effect on CYP2E1 (CYP2E1): no inhibitory in-vitro effect
inhibitory in-vitro effect on CYP3A4/5 (CYP3A4/5): no inhibitory in-vitro effect
inhibitory in-vitro effect on CYP2D6 (CYP2D6): no inhibitory in-vitro effect
ratio of maximum plasma concentration of inhibitor (I) and Ki (CYP2C8; CYP2C8, much smaller than): smaller than 0.1
inhibitory effect on CYP2C8 (CYP2C8; pooled human liver microsomes, CYP isozyme-specific probe substrates, data on file): inhibitory effect
overall incidence of adverse events, CYP2D6 PMs vs non-PMs [1]: no clinically relevant differences
time to steady-state plasma concentrations [2]: ≤ 2 weeks
parent drug detected in the feces ([3]; single 50-mg 14C dose, feces only): 1.5%
drug concentration in plasma relative to whole blood ([3]; single oral dose 50 mg 14C-labeled): double
drug-related material recovered in feces [3, 7]: 26%
drug-related material recovered in urine [3, 7]: 59%
drug-related material recovered in urine and feces [3, 7]: approximately 85%
fraction of unbound parent drug, hepatically impaired vs healthy [4]: no differences
AUC(0–t) lower than healthy cohorts [4, 8]: up to 9%
C max lower than healthy cohorts [4, 8]: up to 16%
AUC(0–t) higher than healthy controls [4, 9]: 10%
C max lower than healthy controls [4, 9]: 24%
I/half maximal inhibitory concentration (Pgp efflux) [5]: smaller than 0.1
Pgp substrate in vitro ([5]; in vitro): poor substrate
inhibition of Pgp transport in vitro ([5]; in vitro): weak inhibitor
SERT occupancy (SERT; 5-mg dose): approximately 50%
SERT occupancy (SERT; 10-mg dose): ~65%
SERT occupancy (SERT; 20-mg dose): above 80%
effect on neuropsychologic tests of cognitive domains with diazepam ([6]; co-administration with diazepam): did not have a statistically significant effect
effect on mental and motor impairment effects of alcohol ([6]; computerized neuropsychologic tests): did not increase
action at 5-HT1A receptor (5-HT1A receptor): agonist
action at 5-HT3 receptor (5-HT3 receptor): antagonist
action at 5-HT7 receptor (5-HT7 receptor): antagonist
action at 5-HT1D receptor (5-HT1D receptor): antagonist
